pIC50: −log10 of the molar value.
Assays:
Acetylcholinesterase [1] = target: Acetylcholinesterase (Homo sapiens, UniProt P22303); experiment: In vitro inhibitory concentration against acetylcholinesterase of human erythrocytes
Cholinesterase = Cholinesterase (Homo sapiens, UniProt P06276)
Description: In vitro inhibitory concentration against BChE of human serum

Acetylcholinesterase [2] = target: T1, Acetylcholinesterase (Bos taurus, UniProt P23795)
T1 sequence (P23795 whole entry): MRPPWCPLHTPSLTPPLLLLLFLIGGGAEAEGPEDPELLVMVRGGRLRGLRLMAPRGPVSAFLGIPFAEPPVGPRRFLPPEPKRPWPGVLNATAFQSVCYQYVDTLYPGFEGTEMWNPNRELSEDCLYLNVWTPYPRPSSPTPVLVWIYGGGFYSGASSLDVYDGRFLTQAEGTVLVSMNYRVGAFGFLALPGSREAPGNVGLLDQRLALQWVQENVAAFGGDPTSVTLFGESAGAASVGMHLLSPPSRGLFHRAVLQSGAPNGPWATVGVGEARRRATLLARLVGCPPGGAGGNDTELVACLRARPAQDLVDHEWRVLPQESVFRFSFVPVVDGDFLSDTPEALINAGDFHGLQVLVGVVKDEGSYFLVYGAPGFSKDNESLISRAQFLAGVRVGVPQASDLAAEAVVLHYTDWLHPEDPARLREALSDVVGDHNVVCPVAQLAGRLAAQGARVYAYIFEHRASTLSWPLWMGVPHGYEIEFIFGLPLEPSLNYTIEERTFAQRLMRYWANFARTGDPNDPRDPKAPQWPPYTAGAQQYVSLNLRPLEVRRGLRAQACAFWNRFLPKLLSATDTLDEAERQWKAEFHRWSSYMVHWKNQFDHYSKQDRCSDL
Description: In vitro inhibitory concentration against bovine acetylcholinesterase enzyme

Sequence of Acetylcholinesterase (Homo sapiens, UniProt P22303) (P22303 whole entry): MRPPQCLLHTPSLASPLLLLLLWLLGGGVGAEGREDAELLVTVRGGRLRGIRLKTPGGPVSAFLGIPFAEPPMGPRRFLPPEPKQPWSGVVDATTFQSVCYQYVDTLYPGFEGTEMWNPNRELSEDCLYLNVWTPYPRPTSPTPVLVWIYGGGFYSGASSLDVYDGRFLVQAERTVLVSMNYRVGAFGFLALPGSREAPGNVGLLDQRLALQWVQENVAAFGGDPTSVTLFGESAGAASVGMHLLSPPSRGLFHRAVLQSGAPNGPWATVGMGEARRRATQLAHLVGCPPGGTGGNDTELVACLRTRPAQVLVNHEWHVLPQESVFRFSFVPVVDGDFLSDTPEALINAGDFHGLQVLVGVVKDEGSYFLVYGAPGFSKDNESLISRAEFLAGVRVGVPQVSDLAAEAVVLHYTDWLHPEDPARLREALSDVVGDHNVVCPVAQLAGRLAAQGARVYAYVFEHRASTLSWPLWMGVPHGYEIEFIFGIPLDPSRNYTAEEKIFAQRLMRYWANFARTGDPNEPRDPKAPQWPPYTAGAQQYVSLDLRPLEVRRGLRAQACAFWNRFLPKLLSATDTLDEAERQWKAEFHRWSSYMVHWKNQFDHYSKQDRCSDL
Sequence of Cholinesterase (P06276 whole entry): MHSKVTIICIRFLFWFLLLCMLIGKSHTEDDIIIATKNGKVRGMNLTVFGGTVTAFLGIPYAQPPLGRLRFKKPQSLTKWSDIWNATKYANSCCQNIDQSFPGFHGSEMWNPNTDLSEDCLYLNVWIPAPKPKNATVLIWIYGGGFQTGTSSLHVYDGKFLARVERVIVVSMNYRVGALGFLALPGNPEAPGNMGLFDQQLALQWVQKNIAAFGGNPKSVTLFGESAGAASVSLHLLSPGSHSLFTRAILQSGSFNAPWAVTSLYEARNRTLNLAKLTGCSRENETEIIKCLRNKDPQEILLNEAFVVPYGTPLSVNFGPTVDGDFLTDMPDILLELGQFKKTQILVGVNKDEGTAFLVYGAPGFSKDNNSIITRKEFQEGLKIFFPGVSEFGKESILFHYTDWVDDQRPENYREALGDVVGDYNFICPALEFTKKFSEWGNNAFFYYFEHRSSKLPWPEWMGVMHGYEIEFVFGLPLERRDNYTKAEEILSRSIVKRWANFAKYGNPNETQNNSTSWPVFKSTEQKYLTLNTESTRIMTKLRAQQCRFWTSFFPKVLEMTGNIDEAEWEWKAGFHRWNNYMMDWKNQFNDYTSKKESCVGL

Row | SMILES | pIC50 (Acetylcholinesterase [1]) | pIC50 (Cholinesterase) | pIC50 (Acetylcholinesterase [2])
1 | CCC1=CC2Cc3nc4ccccc4c(N)c3C(C1)C2 (racemic) | 7.42 | – | –
2 | CC1=CC2CC(C1)Cc1nc3ccccc3c(N)c12 (racemic) | 6.36 | 6.83 | –
3 | CC1=CC2Cc3nc4ccccc4c(N)c3C(C1)C2 (racemic) | 7.29 | – | –
4 | CCC1=CC2CC(C1)Cc1nc3ccccc3c(N)c12 (racemic) | 7.11 | 7.20 | 6.78

Source: ChEMBL document CHEMBL1134330, “Synthesis, in vitro pharmacology, and molecular modeling of syn-huprines as acetylcholinesterase inhibitors” (J Med Chem, 2001)
